In ChEMBL document CHEMBL1201862, “PubChem BioAssay data set” (2004):
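A five-concentration, 48-hour dose response in 96-well plates underlies each endpoint, interpolated linearly between surrounding concentrations. The concentration for 50% growth inhibition is given as GI50.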 Activity calls are given as the source filed them. No stated cut-off is given here; in the data, active = GI50 up to about 1.1 µM and inactive = higher.

Columns and labels:
Test in all cases: growth of human tumour cells (NCI), 48 h
COLO 205 = tested on: COLO 205
IGROV-1 = tested on: IGROV-1
SK-MEL-28 = tested on: SK-MEL-28
HOP-92 = tested on: HOP-92
SF-539 = tested on: SF-539
A549 = tested on: A549
MOLT-4 = tested on: MOLT-4
HL-60 = tested on: HL-60
KM-20L2 = tested on: KM-20L2
XF498 = tested on: XF498
SF-295 = tested on: SF-295
SK-MEL-2 = tested on: SK-MEL-2
OVCAR-4 = tested on: OVCAR-4
DLD-1 = tested on: DLD-1
M14 = tested on: M14
OVCAR-5 = tested on: OVCAR-5
M19-MEL = tested on: M19-MEL
NCI-H23 = tested on: NCI-H23
SK-MEL-5 = tested on: SK-MEL-5
HCC 2998 = tested on: HCC 2998
NCI-H460 = tested on: NCI-H460
LXFL 529 = tested on: LXFL 529
SF-268 = tested on: SF-268
LOX IMVI = tested on: LOX IMVI
HOP-18 = tested on: HOP-18
UO-31 = tested on: UO-31
SNB-75 = tested on: SNB-75
UACC-257 = tested on: UACC-257
NCI-H522 = tested on: NCI-H522
DMS-273 = tested on: DMS-273
CCRF-CEM = tested on: CCRF-CEM
SR = tested on: SR
SN12C = tested on: SN12C
HCT-116 = tested on: HCT-116
RPMI-8226 = tested on: RPMI-8226
RXF 393 = tested on: RXF 393
UACC-62 = tested on: UACC-62
ACHN = tested on: ACHN
SNB-19 = tested on: SNB-19
KM12 = tested on: KM12
K562 = tested on: K562
SK-OV-3 = tested on: SK-OV-3
DMS-114 = tested on: DMS-114
786-0 = tested on: 786-0
SW-620 = tested on: SW-620
OVCAR-3 = tested on: OVCAR-3
U-251 = tested on: U-251
A498 = tested on: A498
HT-29 = tested on: HT-29
NCI-H226 = tested on: NCI-H226
EKVX = tested on: EKVX
OVCAR-8 = tested on: OVCAR-8
HOP-62 = tested on: HOP-62
MDA-MB-435 = tested on: MDA-MB-435
HCT-15 = tested on: HCT-15
MCF7 = tested on: MCF7
DU-145 = tested on: DU-145
Malme-3M = tested on: Malme-3M
BT-549 = tested on: BT-549
NCI/ADR-RES = tested on: NCI/ADR-RES
T47D = tested on: T47D
Hs-578T = tested on: Hs-578T
MDA-MB-231 = tested on: MDA-MB-231
CAKI-1 = tested on: CAKI-1
PC-3 = tested on: PC-3
MDA-N = tested on: MDA-N
SNB-78 = tested on: SNB-78
TK-10 = tested on: TK-10

Measured: GI50

CC(C)C(=O)/C=C/c1ccc(Cl)cc1
inactive: COLO 205 28.2 µM | IGROV-1 21.6 µM | SK-MEL-28 > 10 µM | HOP-92 16.7 µM | SF-539 10.4 µM | A549 21.7 µM | MOLT-4 12.2 µM | HL-60 8.22 µM | KM-20L2 26.2 µM | XF498 7.78 µM | SF-295 13.5 µM | SK-MEL-2 19.4 µM | OVCAR-4 12.9 µM | DLD-1 11.9 µM | M14 17.1 µM | OVCAR-5 20.2 µM | M19-MEL 14.4 µM | NCI-H23 17 µM | SK-MEL-5 8.57 µM | HCC 2998 18 µM | NCI-H460 15.7 µM | LXFL 529 14.9 µM | SF-268 23.8 µM | LOX IMVI 8.83 µM | HOP-18 4.9 µM | UO-31 12.2 µM | SNB-75 15.8 µM | UACC-257 20.2 µM | NCI-H522 11 µM | DMS-273 3.99 µM | CCRF-CEM 4.19 µM | SR 4.84 µM | SN12C 7.73 µM | HCT-116 2.67 µM | RPMI-8226 5.37 µM | RXF 393 17.6 µM | UACC-62 15.4 µM | ACHN 11.2 µM | SNB-19 13.4 µM | KM12 11.5 µM | K562 3.48 µM | SK-OV-3 40.5 µM | DMS-114 16.9 µM | 786-0 11.1 µM | SW-620 3.99 µM | OVCAR-3 14.4 µM | U-251 12.9 µM | A498 > 10 µM | HT-29 14.1 µM

CCOC(=O)NC1=C(N2CC2)C(=O)C(NC(=O)OCC)=C(N2CC2)C1=O [DIAZIQUONE]
active: HL-60 0.357 µM | SF-295 1.12 µM | HOP-62 0.741 µM | NCI-H460 0.188 µM | DMS-273 0.596 µM | SR 0.339 µM | CAKI-1 1.08 µM | UACC-62 0.489 µM | ACHN 0.82 µM
inactive: NCI-H226 4.23 µM | COLO 205 7.69 µM | IGROV-1 5.33 µM | SK-MEL-28 13 µM | HOP-92 5.51 µM | SF-539 1.75 µM | MOLT-4 1.38 µM | KM-20L2 6.93 µM | XF498 3.67 µM | EKVX 6.37 µM | SK-MEL-2 5.96 µM | OVCAR-8 3.73 µM | OVCAR-4 4.9 µM | DLD-1 7.38 µM | M14 2.62 µM | OVCAR-5 7.85 µM | M19-MEL 5.38 µM | NCI-H23 1.85 µM | MDA-MB-435 3.58 µM | MCF7 1.98 µM | DU-145 1.9 µM | SK-MEL-5 3.72 µM | HCC 2998 6.85 µM | LXFL 529 4.92 µM | SF-268 2.81 µM | Malme-3M 6.49 µM | LOX IMVI 2.31 µM | HOP-18 6.35 µM | UO-31 5.56 µM | SNB-75 4.73 µM | BT-549 11.4 µM | UACC-257 4.65 µM | NCI-H522 3.14 µM | NCI/ADR-RES 3.48 µM | CCRF-CEM 1.37 µM | T47D 6.21 µM | SN12C 1.36 µM | Hs-578T 13.2 µM | MDA-MB-231 8.13 µM | PC-3 4.36 µM | HCT-116 3.53 µM | MDA-N 3.4 µM | SNB-78 7.36 µM | RPMI-8226 3.99 µM | RXF 393 4.68 µM | SNB-19 4.11 µM | KM12 8.81 µM | K562 5.43 µM | SK-OV-3 4.52 µM | DMS-114 2.01 µM | TK-10 31.6 µM | 786-0 1.56 µM | SW-620 4.97 µM | OVCAR-3 4.75 µM | U-251 2.51 µM | A498 3.56 µM | HT-29 7.73 µM
7.69 µM: HCT-15
